The values that follow come from patent US12545659B2, “IRAK degraders and uses thereof” (Kymera Therapeutics, Inc., priority 2019, dated 2026).

Molecules are shown by their SMILES.

The target in one assay is T1, IRAK4 (Homo sapiens, UniProt Q9NWZ3).
T1 construct: endogenous in cells; host or cells: OCI-LY10
T1 sequence (Q9NWZ3 1-460): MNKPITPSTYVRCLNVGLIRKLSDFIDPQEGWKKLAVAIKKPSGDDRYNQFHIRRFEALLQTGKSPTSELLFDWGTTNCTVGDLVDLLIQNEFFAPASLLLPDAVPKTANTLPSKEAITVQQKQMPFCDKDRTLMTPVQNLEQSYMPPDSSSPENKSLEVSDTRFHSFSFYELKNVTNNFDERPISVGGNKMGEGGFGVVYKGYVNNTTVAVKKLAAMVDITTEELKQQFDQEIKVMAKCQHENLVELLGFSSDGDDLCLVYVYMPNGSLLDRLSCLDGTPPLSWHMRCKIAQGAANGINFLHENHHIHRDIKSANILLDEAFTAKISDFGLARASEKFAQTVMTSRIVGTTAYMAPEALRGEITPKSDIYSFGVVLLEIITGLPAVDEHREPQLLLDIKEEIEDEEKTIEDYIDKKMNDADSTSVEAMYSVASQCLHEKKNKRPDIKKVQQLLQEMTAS
Put plainly: IRAK4 MSD Degradation in OCI-LY10. Type of assay: cell-based. To be noted: OCI-LY10 cells, 4 hrs incubation, read-out: IRAK4 degradation in OCI-LY10 at 4 hrs: DC50. The protocol:
Degradation of IRAK4 in OCI-LY10 was quantitatively measured using Meso Scale Discovery technology. […] Compounds were then added to the assay plates with a final top concentration of 1 to 10 μM in a 1:3 dilution series with total of 8 doses. The assay plates were then incubated for 4 to 24 hours at 37° C. under 5% C02. […] To prepare MSD assay plates (Meso Scale Discovery Catalog number L15XA-3), the plates were coated with […] capture antibody (mouse Anti-IRAK4 antibody [2H9], ab119942) in PBS, at 40 μL/well. […] Cell lysates were then added to MSD assay plates and the plates were incubated at room temperature for 1 hour. The plates were then washed 3 times with 150 μL/well TBST buffer and 25 μL/well primary detection antibody (rabbit Anti-IRAK4 antibody [Y279], from Abcam. Catalog number ab32511, 1 μg/mL). The assay plates were then incubated at room temperature for 1 hour, washed 3 times with 150 μL/well TBST buffer and 25 μL/well secondary detection antibody, SULFO-TAG anti-rabbit antibody were added (anti rabbit antibody from Meso Scale Discovery, Catalog number R32AB-1, 1 μg/mL). The assay plates were then incubated at room temperature for 1 hour, washed 3 times with 150 μL/well TBST buffer, and 150 μL/well MSD reading buffer (Meso Scale Discovery catalog number R92TC-2) was added. The plates were then analyzed by a MSD reader (Meso Scale Discovery, Model Quick Plex SQ 120). The data was then analyzed by software Prism 7.0 from GraphPad and the dose-depended IRAK4 degradation were fit using a three-parameter logistic equation to calculate DC50.
The letter codes for IRAK4 […] include: A (<0.05 μM); B (0.05-0.1 μM); C (0.1-0.5 μM); D (0.5-1.0 μM); and E (>1.0 μM).
As to `Cn1c(=O)n(C2CCC(=O)NC2=O)c2cccc([C@H]3CC[C@H](N(C)C[C@H]4CC[C@H](n5cc6cc(NC(=O)c7cccc(C(F)(F)F)n7)c(C(F)F)cc6n5)CC4)CC3)c21` (single isomer, unassigned) [I-164, N-[6-(difluoromethyl)-2-[4-[[[4-[1-(2,6-dioxo-3-piperidyl)-3-methyl-2-oxo-benzimidazol-4-yl]cyclohexyl]-methyl-amino]methyl]cyclohexyl]indazol-5-yl]-6-(trifluoromethyl)pyridine-2-carboxamide], the DC50 (in general, the midpoint of the concentration-degradation curve) was below 50 nM. On the same count and under the same terms, the figure for `Cn1c(=O)n(C2CCC(=O)NC2=O)c2cccc([C@H]3CC[C@@H](N(C)C[C@H]4CC[C@H](n5cc6cc(NC(=O)c7cccc(C(F)(F)F)n7)c(C(F)F)cc6n5)CC4)CC3)c21` (single isomer, unassigned) [I-165, N-[6-(difluoromethyl)-2-[4-[[[4-[1-(2,6-dioxo-3-piperidyl)-3-methyl-2-oxo-benzimidazol-4-yl]cyclohexyl]-methyl-amino]methyl]cyclohexyl]indazol-5-yl]-6-(trifluoromethyl)pyridine-2-carboxamide] is below 50 nM; for `Cn1c(=O)n(C2CCC(=O)NC2=O)c2cccc([C@H]3CC[C@@H](N(C)C[C@H]4CC[C@H](n5cc6cc(NC(=O)c7cccc(C(F)(F)F)n7)c(C(C)(C)O)cc6n5)CC4)CC3)c21` (single isomer, unassigned) [I-174, N-[2-[4-[[[4-[1-(2,6-dioxo-3-piperidyl)-3-methyl-2-oxo-benzimidazol-4-yl]cyclohexyl]-methyl-amino]methyl]cyclohexyl]-6-(1-hydroxy-1-methyl-ethyl)indazol-5-yl]-6-(trifluoromethyl)pyridine-2-carboxamide] it is below 50 nM; for `Cn1c(=O)n(C2CCC(=O)NC2=O)c2cccc([C@H]3CC[C@H](N(C)C[C@H]4CC[C@H](n5cc6cc(NC(=O)c7cccc(C(F)(F)F)n7)c(C(C)(C)O)cc6n5)CC4)CC3)c21` (single isomer, unassigned) [I-175, N-[2-[4-[[[4-[1-(2,6-dioxo-3-piperidyl)-3-methyl-2-oxo-benzimidazol-4-yl]cyclohexyl]-methyl-amino]methyl]cyclohexyl]-6-(1-hydroxy-1-methyl-ethyl)indazol-5-yl]-6-(trifluoromethyl)pyridine-2-carboxamide] it is below 50 nM. Same read-out and setting: the figure for `CN(C[C@H]1CC[C@H](n2ncc3cc(NC(=O)c4cccc(C(F)(F)F)n4)c(C(C)(C)O)cc32)CC1)C1CCN(Cc2cccc3c2n(C)c(=O)n3C2CCC(=O)NC2=O)CC1` (some centres unmarked) [I-34] is 500 to 1000 nM; for `CN(CC1CCN(c2cccc3c2C(=O)N(C2CCC(=O)NC2=O)C3=O)CC1)C[C@H]1CC[C@H](n2cc3cc(NC(=O)c4cccc(C(F)(F)F)n4)c(C(C)(C)O)cc3n2)CC1` (some centres unmarked) [I-40] it is 50 to 100 nM. Take `CN(C(=O)[C@H]1CC[C@H](n2cc3cc(NC(=O)c4cccc(C(F)(F)F)n4)c(C(C)(C)O)cc3n2)CC1)C1CCN(Cc2cccc3c2n(C)c(=O)n3C2CCC(=O)NC2=O)CC1` (some centres unmarked) [I-43]: the DC50 was below 50 nM. As to `Cn1c(=O)n(C2CCC(=O)NC2=O)c2cccc(CN3CC4(CCN(C(=O)[C@H]5CC[C@H](n6cc7cc(NC(=O)c8cccc(C(F)(F)F)n8)c(C(C)(C)O)cc7n6)CC5)CC4)C3)c21` (some centres unmarked) [I-44], the DC50 is below 50 nM. Take `Cn1c(=O)n(C2CCC(=O)NC2=O)c2cccc(CN3CC4(C3)CN(C(=O)[C@H]3CC[C@H](n5cc6cc(NC(=O)c7cccc(C(F)(F)F)n7)c(C(C)(C)O)cc6n5)CC3)C4)c21` (some centres unmarked) [I-45, N-[2-[4-[6-[[1-(2,6-dioxo-3-piperidyl)-3-methyl-2-oxo-benzimidazol-4-yl]methyl]-2,6-diazaspiro[3.3]heptane-2-carbonyl]cyclohexyl]-6-(1-hydroxy-1-methyl-ethyl)indazol-5-yl]-6-(trifluoromethyl)pyridine-2-carboxamide]: the DC50 lay within 50 to 100 nM. The same measure, in the same setting: the figure for `Cc1cccc(C(=O)Nc2cc3cn([C@H]4CC[C@H](CN(C)C5CCN(Cc6cccc7c6n(C)c(=O)n7C6CCC(=O)NC6=O)CC5)CC4)nc3cc2C(C)(C)O)n1` (some centres unmarked) [I-48] is below 50 nM; for `Cn1c(=O)n(C2CCC(=O)NC2=O)c2cccc(CN3CC4(CN(Cc5ccc(-n6cc7cc(NC(=O)c8cccc(C(F)(F)F)n8)c(C(C)(C)O)cc7n6)cc5)C4)C3)c21` (centres unmarked) [I-49] it is 50 to 100 nM. On the same count and under the same terms, the figure for `CN(C[C@H]1CC[C@H](n2cc3cc(NC(=O)c4cnn5cccnc45)c(C(C)(C)O)cc3n2)CC1)C1CCN(Cc2cccc3c2n(C)c(=O)n3C2CCC(=O)NC2=O)CC1` (some centres unmarked) [I-50] is below 50 nM; for `Cn1c(=O)n(C2CCC(=O)NC2=O)c2cccc(CN3CCOC4(CCN(Cc5ccc(-n6cc7cc(NC(=O)c8cccc(C(F)(F)F)n8)c(C(C)(C)O)cc7n6)cc5)CC4)C3)c21` (centres unmarked) [I-52] it is 50 to 100 nM.

Consider `Cn1c(=O)n(C2CCC(=O)NC2=O)c2cccc(CCC3CC4(CCN(C[C@H]5CC[C@H](n6cc7cc(NC(=O)c8cccc(C(F)(F)F)n8)c(C(C)(C)O)cc7n6)CC5)CC4)C3)c21` (some centres unmarked) [I-53], for which the DC50 is below 50 nM. Consider `CN(C[C@H]1CC[C@H](n2cc3cc(NC(=O)c4ccccn4)c(C(C)(C)O)cc3n2)CC1)C1CCN(Cc2cccc3c2n(C)c(=O)n3C2CCC(=O)NC2=O)CC1` (some centres unmarked) [I-54], for which the DC50 was in the range of 50 to 100 nM. The same measure, in the same setting: as for `Cn1c(=O)n(C2CCC(=O)NC2=O)c2cccc(CCN3CC4(CCN(C[C@H]5CC[C@H](n6cc7cc(NC(=O)c8cccc(C(F)(F)F)n8)c(C(C)(C)O)cc7n6)CC5)CC4)C3)c21` (some centres unmarked) [I-55], the figure is below 50 nM.

The same assay, now with this note: OCI-LY10 cells, 24 hrs incubation, read-out: IRAK4 degradation in OCI-LY10 at 24 hrs: DC50.
With `COc1cc2nn([C@H]3CC[C@H](CN4CCC5(CC4)CC(CCNc4cccc6c4C(=O)N(C4CCC(=O)NC4=O)C6=O)C5)CC3)cc2cc1NC(=O)c1cccc(C(C)(F)F)n1` (single isomer, unassigned) [I-128], the half-maximal degradation concentration (DC50) was in the range of 50 to 100 nM. On the same count and under the same terms, as for `COc1cc2nn([C@H]3CC[C@H](CN4CCC5(CC4)CC(CCNc4cccc6c4C(=O)N(C4CCC(=O)NC4=O)C6=O)C5)CC3)cc2cc1NC(=O)c1cccc(C(C)(F)F)n1` (single isomer, unassigned) [I-129], the figure is 50 to 100 nM.

`CN(CCCOCCCNc1cccc2c1C(=O)N(C1CCC(=O)NC1=O)C2=O)C[C@H]1CC[C@H](n2cc3cc(NC(=O)c4cccc(C(F)(F)F)n4)c(C(C)(C)O)cc3n2)CC1` (some centres unmarked) [I-31]: the DC50 fell in the range of 50 to 100 nM. On the same count and under the same terms, as for `CN(C[C@H]1CC[C@H](n2cc3cc(NC(=O)c4cccc(C(F)(F)F)n4)c(C(C)(C)O)cc3n2)CC1)C1CCC2(CC1)CC(CNc1cccc3c1C(=O)N(C1CCC(=O)NC1=O)C3=O)C2` (some centres unmarked) [I-32], the figure is below 50 nM; as for `O=C1CCC(N2C(=O)c3cccc(NCCCOCC4CCN(C[C@H]5CC[C@H](n6cc7cc(NC(=O)c8cccc(C(F)(F)F)n8)c(C(F)F)cc7n6)CC5)CC4)c3C2=O)C(=O)N1` (some centres unmarked) [I-33], 50 to 100 nM. On the same count and under the same terms, the figure for `CC(C)(O)c1cc2nn([C@H]3CC[C@H](CN4CCC5(CC4)CC(Nc4cccc6c4C(=O)N(C4CCC(=O)NC4=O)C6=O)C5)CC3)cc2cc1NC(=O)c1cccc(C(F)(F)F)n1` (some centres unmarked) [I-35, N-[2-[4-[[2-[[2-(2,6-dioxo-3-piperidyl)-1,3-dioxo-isoindolin-4-yl]amino]-7-azaspiro [3.5]nonan-7-yl]methyl]cyclohexyl]-6-(1-hydroxy-1-methyl-ethyl)indazol-5-yl]-6-(trifluoromethyl)pyridine-2-carboxamide] is below 50 nM.

On to `CN(CCCO[C@H]1C[C@H](Nc2cccc3c2C(=O)N(C2CCC(=O)NC2=O)C3=O)C1)C[C@H]1CC[C@H](n2cc3cc(NC(=O)c4cccc(C(F)(F)F)n4)c(C(C)(C)O)cc3n2)CC1` (some centres unmarked) [I-41], for which the DC50 is below 50 nM. Still for that read-out and setting: the figure for `CC(C)(O)c1cc2nn([C@H]3CC[C@H](CN4CCC5(CC4)CC(CNc4cccc6c4C(=O)N(C4CCC(=O)NC4=O)C6=O)C5)CC3)cc2cc1NC(=O)c1cccc(C(F)(F)F)n1` (some centres unmarked) [I-42] is below 50 nM. The same measure, in the same setting: as for `O=C1CCC(N2C(=O)c3cccc(NCC4CC5(CCN(C[C@H]6CC[C@H](n7cc8cc(NC(=O)c9cccc(C(F)(F)F)n9)c(C(F)F)cc8n7)CC6)CC5)C4)c3C2=O)C(=O)N1` (some centres unmarked) [I-46], the figure is 50 to 100 nM. On the same count and under the same terms, the figure for `Cc1cccc(C(=O)Nc2cc3cn([C@H]4CC[C@H](CN(C)[C@H]5CC[C@H](Nc6cccc7c6C(=O)N(C6CCC(=O)NC6=O)C7=O)CC5)CC4)nc3cc2C(C)(C)O)n1` (some centres unmarked) [I-47] is below 50 nM.
